Laboratory results as given in patent publication US20030054185A1, “Biocidal controlled-release formulations” (CREAVIS GESELLSCHAFT F. TECHN.U.INNOVATION MBH, priority 2001, published 2003).

Columns and labels:
[1] = system: Staphylococcus aureus; assay: test microbial suspension shaken with aqueous extract, number of microbes determined; format: cell-based; settings: contact time of 4 hours, starting number 10^7, 2 mL of 24 h water extract (37° C.) in 20 mL suspension (solvent control: 0.5 mL neat)
[2] = system: Pseudomonas aeruginosa; assay: as above; format: cell-based; settings: contact time of 4 hours, starting number 10^7, 2 mL of 24 h water extract (37° C.) in 20 mL suspension (solvent control: 0.5 mL neat)
Procedure: The supernatant liquor is then filtered through a 0.2 micrometer pore filter. 2 mL of this solution are shaken with 20 mL of a test microbial suspension of Pseudomonas aeruginosa. […] The solvent is removed at 35° C. over a period of 48 hours in a drying cabinet, so that a polymer film remains on the base of the glass beaker. This film is extracted for 24 hours with 200 mL of water heated to 37° C. 2 mL of this solution are shaken with 20 mL of a test microbial suspension of Pseudomonas aeruginosa. […] Over a period of 14 days, the film is extracted as described above, each time for 24 hours, with 200 mL of water heated to 37° C., and the water is then subjected to microbiological testing. All of the determinations show a fall of from 4 to 5 logarithmic levels in the number of microbes. […] The solvent is removed over a period of 48 hours at 35° C. in a drying cabinet, so that a polymer film remains on the base of the glass beaker. The film is then dried for 24 hours at 5 mbar at 50° C. in a vacuum drying cabinet. This film is extracted for 24 hours with 200 mL of water heated to 37° C. 2 mL of this solution are shaken with 20 mL of a test microbial suspension of Pseudomonas aeruginosa. […] The solvent is removed over a period of 48 hours at 35° C. in a drying cabinet so that a polymer film remains on the base of the glass beaker. […]

SMILES: CCO [ethanol]
- number of microbes in the test mixture [1]: 10^7 microbes per mL

SMILES: C1CCCCC1 [cyclohexane]
- number of microbes in the test mixture [2]: 10^7 microbes per mL
